Data from patent US20120244106A1 (SANOFI-AVENTIS U.S. LLC, priority 2009, published 2012).

Assays:
Format in all cases: in vivo, humans
[1] = tested on: relapsing-remitting multiple sclerosis patients; experiment: Confirmed MS relapses / annualized relapse rate, 48-week treatment period, ITT population; details: 48 weeks
Procedure: Safety was evaluated from TEAE, physical exam (every 6 weeks), laboratory data (every 6 weeks), vital signs (every 6 weeks), ECG (at the close-out visit), pancreatic ultrasound (at the close-out visit) and brain MRI (at the close-out visit). Relapses were recorded and EDSS was performed every 6-weeks.

[2] = tested on: relapsing-remitting multiple sclerosis patients; experiment: Safety and tolerability (TEAE, laboratory data), 24-week study; details: 24 weeks
Procedure: (§1) A placebo-controlled, double-blinded, randomized study was conducted in relapsing-remitting multiple sclerosis patients who were concurrently on a stable dose of glatiramer acetate. The dose of glatiramer acetate was 20 mg subcutaneously daily.
Around 40 patients were treated in each treatment group (placebo: 41, 7 mg: 42, and 14 mg: 40).
(§2) Safety was evaluated with reported Treatment Emergent Adverse Events (TEAE), physical examination (every 8-weeks), laboratory data (e.g. Liver Function Test, every 2 weeks), vital signs (every 8-weeks), ECG and abdominal ultrasound (at baseline and at 24-weeks). Brain MRI activity, including T1-gadolinium (T1-Gd) lesions with central reading was recorded every 8-weeks, EDSS scores were recorded at baseline and at 24-weeks, Fatigue impact scale was assessed every 8-weeks, and relapses were assessed at every clinical visit.

[3] = tested on: relapsing-remitting multiple sclerosis patients; experiment: Brain MRI Gd-enhancing T1-lesions (number and volume), entire 48-week double-blind treatment period, ITT population
Procedure: (§3) Design/Methods: 96 of the 123 patients that were randomized to study treatment ([…]) for the first 6-months in Example 1 completed this 6-month period and accepted to continue medication for an additional 6-month period (placebo: 37, 7 mg: 30, 14 mg: 29). Of the 96 treated patients, 5 patients prematurely withdrew from the study treatment (placebo: 3, 7 mg: 0, and 14 mg: 2). Safety was evaluated from TEAE, physical exam (every 6 weeks), laboratory data (every 6 weeks), vital signs (every 6 weeks), ECG (at the close-out visit), pancreatic ultrasound (at the close-out visit) and brain MRI (at the close-out visit). Relapses were recorded and EDSS was performed every 6-weeks. Annualized relapse rates (ARR) were analyzed by a Poisson model with the total number of confirmed relapses onset between randomization date and last dose date as the response variable, treatment and region as covariates, and log-transformed standardized study duration as an offset variable. The following results report the entire 48-week double-blind treatment period.
One patient (14 mg group) had one day participation in the study and had no valid baseline MRI data. Two other patients, one in 7 mg and one in 14 mg, prematurely discontinued the study and no post baseline MRI was collected.

[4] = tested on: relapsing-remitting multiple sclerosis patients; experiment: Confirmed MS relapses / annualized relapse rate, 24-week study, ITT population; details: 24 weeks
Procedure: as §1
(§4) Around 40 patients were treated in each treatment group (placebo: 41, 7 mg: 42, and 14 mg: 40). […] The mean age of the study population was 41.4 years. […] The base line Expanded Disability Status Scale (EDSS) score was similar between treatment groups (around 2.5). A few more patients had Magnetic Resonance Image (MRI) disease activity (at least one T1-Gd lesion) at baseline in 7 mg group (28.6%) than in placebo (14.6%) and 14 mg (12.8%) groups.
as §2
Twenty-nine patients experienced a total of 30 confirmed relapses. Two relapses occurred after treatment discontinuation (1 day in one placebo patient, 41 days in one 7 mg patient). Therefore, 28 confirmed relapses occurring in 27 patients were included in the analysis (Table 3).

[5] = tested on: relapsing-remitting multiple sclerosis patients; experiment: Safety and tolerability (TEAE, laboratory data), 48-week treatment period; details: 48 weeks
Procedure: as §3

[6] = tested on: relapsing-remitting multiple sclerosis patients; experiment: Brain MRI Gd-enhancing T1-lesions (number and volume), 24-week placebo-controlled add-on study, ITT population; details: 24 weeks
Procedure: as §1, §4, §2

[7] = 7 mg teriflunomide + GA 20 mg sc daily
[8] = 14 mg teriflunomide + GA 20 mg sc daily
[9] = 7 mg or 14 mg teriflunomide + GA
[10] = the two teriflunomide groups (7 mg, 14 mg) + GA vs placebo + GA
[11] = 7 mg teriflunomide + GA 20 mg sc daily, 48 weeks
[12] = 14 mg teriflunomide + GA 20 mg sc daily (group not given)

With C/C(O)=C(\C#N)C(=O)Nc1ccc(C(F)(F)F)cc1 [teriflunomide, (Z)-2-cyano-3-hydroxy-but-2-enoic acid-(4′-trifluoromethylphenyl)-amide] the “Adjusted annualized relapse rate, estimate (Poisson model)” value (“Adjusted annualized relapse rate” for short) [1, 7] was 0.262, the “Number of patients with >=1 relapses: Yes (number of patients)” value [1, 7] was 8 and the “Unadjusted annualized relapses rate” value [1, 7] was 0.281 per patient year. For the same compound, the “Adjusted annualized relapse rate” value [1, 8] was 0.497, the “Number of patients with >=1 relapses: Yes (number of patients)” value [1, 8] was 15 and the “Unadjusted annualized relapses rate” value [1, 8] was 0.546 per patient year. The “Concurrent increase in ALT>3ULN and in total bilirubin>2ULN” value [2, 9] was “No case”, the Deaths [2, 9] was “No patients died” and the “Number of patients with TEAE leading to treatment discontinuation” value (from here on “Number of patients with TEAE leading”) [2, 7] was 3. For the same compound, the “Patients with ALT greater than 3ULN” value [2, 7] was 0, the “Patients with TEAE leading to treatment discontinuation (%)” value (“Patients with TEAE leading … (%)” for short) [2, 7] was 7.1% and the “Proportion of patients with TEAE potentially related to immunosuppression” value [2, 7] was 43%. The “Proportion of patients with a TEAE related to hepatic disorder” value (shortened to “Proportion … to hepatic disorder”) [2, 7] was 9.5%, the TEAE incidence rate [2, 7] was 83.3% and the “Number of patients with TEAE leading” value [2, 8] was 4. The “Patients with ALT greater than 3ULN” value [2, 8] was 1, the “Patients with TEAE leading … (%)” value [2, 8] was 10% and the “Proportion of patients with TEAE potentially related to immunosuppression” value [2, 8] was 38%. The “Proportion … to hepatic disorder” value [2, 8] was 12.2%, the TEAE incidence rate [2, 8] was 87.5% and the Tolerability and safety ([2]; each teriflunomide dose (7 mg, 14 mg) combined with GA) was “acceptable”. The “Proportion of patients with occurrence of decreased WBC count and neutrophils (PCSA)” value [2, 10] was “slightly higher”, the “Patients with >=1 Gd-enhancing T1-lesions post-baseline: No (% of patients)” value [3, 11] was 56.1% and the “Unadjusted Gd-enhancing T1-lesions per scan” value [3, 11] was 0.317. The “Unadjusted Gd-enhancing T1-lesions per scan” value ([3]; 14 mg teriflunomide + GA 20 mg sc daily, 48 weeks) was 0.233, the “Controlling disease activity as measured by T1-Gd lesions” value ([3]; teriflunomide added to GA, one-year study) was “trend to benefit” and the “Adjusted annualized relapse rate” value [4, 7] was 0.311. The “Total number of relapses” value [4, 7] was 6, the “Unadjusted annualized relapses rate” value [4, 7] was 0.337 per patient year and the “Adjusted annualized relapse rate” value [4, 8] was 0.647. The “Total number of relapses” value [4, 8] was 12, the “Unadjusted annualized relapses rate” value [4, 8] was 0.710 per patient year and the “Number of patients experiencing a serious TEAE” value [5, 7] was 5. The “Number of patients with TEAE leading” value [5, 7] was 3, the “Patients experiencing a serious TEAE (%)” value [5, 7] was 11.9% and the “Patients who experienced a TEAE related to hypertension (number)” value [5, 7] was 2. The “Patients with ALT greater than 3×ULN” value [5, 7] was 0, the “Patients with TEAE leading … (%)” value [5, 7] was 7.1% and the “Proportion of patients experiencing a TEAE related to hypersensitivity” value [5, 7] was 14.3%. For the same compound, the “Proportion of patients with a TEAE potentially related to immunosuppression (all infections and hematological disorders)” value [5, 7] was 52.4%, the “Proportion … to hepatic disorder” value [5, 7] was 9.5% and the TEAE incidence rate [5, 7] was 95.2%. For the same compound, the “Number of patients experiencing a serious TEAE” value [5, 12] was 2, the “Patients experiencing a serious TEAE (%)” value [5, 12] was 4.9% and the “Number of patients with TEAE leading” value [5, 8] was 5. For the same compound, the “Patients who experienced a TEAE related to hypertension (number)” value [5, 8] was 2, the “Patients with ALT greater than 3×ULN” value [5, 8] was 1 and the “Patients with TEAE leading … (%)” value [5, 8] was 12.2%. For the same compound, the “Proportion of patients experiencing a TEAE related to hypersensitivity” value [5, 8] was 24.4%, the “Proportion of patients with a TEAE potentially related to immunosuppression (all infections and hematological disorders)” value [5, 8] was 51.2% and the “Proportion … to hepatic disorder” value [5, 8] was 12.2%. The TEAE incidence rate [5, 8] was 92.7%, the Tolerability and safety ([5]; each dose of teriflunomide (7 mg, 14 mg) combined with GA) was “acceptable and manageable” and the “Proportions of patients with occurrence of decreased WBC and neutrophil counts (PCSA)” value [5, 10] was “slightly higher”. The “Patients with >=1 Gd-enhancing T1-lesions post-baseline: No (% of patients)” value [6, 7] was 61.0%, the “Unadjusted Gd-enhancing T1-lesions per scan” value [6, 7] was 0.321 and the “Unadjusted Gd-enhancing T1-lesions per scan” value [6, 8] was 0.262. For the same compound, the “Disease control as evaluated by T1-Gd MRI activity” value ([6]; teriflunomide added to stable-dosed GA) was “improved disease control beyond glatiramer acetate alone”.
